# Reference: US20240002391A1, “4-ALKOXYPYRROLO[2,1-F][1,2,4]TRIAZINES AND PREPARATION AND USES THEREOF” (BioSplice Therapeutics, Inc., priority 2022, published 2024)
# Biological target: recombinant DYRK1A kinase (Homo sapiens (Human), UniProt Q13627)
# Assay: DYRK1A kinase assay (Ser/Thr 18 peptide Z-lyte FRET)
# Assay type: biochemical
# Details: DYRK1A kinase activity, Z-lyte Ser/Thr 18 peptide, 15 μM ATP; method text calls the value IC50; read-out: EC50 (the source's name)
# How it was run: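 Compounds were tested as 11-point, threefold dilution series starting at 10 μM against recombinant enzyme in a 1 h room-temperature reaction with 15 μM ATP and 4 μM peptide substrate. Phosphorylation is read by protease-coupled FRET, and IC50 values come from curve fitting.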
row,SMILES,IC50 [nM]
1,"COc1nc(N[C@@H]2CCN(C(C)=O)CC2(F)F)nn2ccc(-c3ccc4nccnc4c3)c12 [Compound 1096, (R)-1-(3,3-Difluoro-4-((4-methoxy-5-(quinoxalin-6-yl)pyrrolo[2,1-f][1,2,4]triazin-2-yl)amino)piperidin-1-yl)ethan-1-one]",3
2,"COc1nc(N[C@H]2C[C@@](C)(NC(=O)OC(C)(C)C)C2)nn2ccc(-c3ccc4nccnc4c3)c12 [Compound 337, tert-Butyl (cis-3-((4-methoxy-5-(quinoxalin-6-yl)pyrrolo[2,1-f][1,2,4]triazin-2-yl)amino)-1-methylcyclobutyl)carbamate]",11.5
3,"COc1nc(N[C@H]2CCN(C3COC3)C[C@H]2F)nn2ccc(-c3cc(F)c4nc(C)n(C(C)C)c4c3)c12 [Compound 1142, N-((3R,4S)-3-Fluoro-1-(oxetan-3-yl)piperidin-4-yl)-5-(4-fluoro-1-isopropyl-2-methyl-1H-benzo[d]imidazol-6-yl)-4-methoxypyrrolo[2,1-f][1,2,4]triazin-2-amine]",2.3
4,"C[C@]1(O)CC[C@H](Nc2nc(OC3COC3)c3c(-c4ccc5ncccc5c4)ccn3n2)CC1 [Compound 1089, (1r,4r)-1-Methyl-4-((4-(oxetan-3-yloxy)-5-(quinolin-6-yl)pyrrolo[2,1-f][1,2,4]triazin-2-yl)amino)cyclohexan-1-ol]",4.5
5,"COc1nc(N[C@H]2C[C@@](C)(N)C2)nn2ccc(-c3ccc4nccnc4c3)c12 [Compound 332, cis-N1-(4-Methoxy-5-(quinoxalin-6-yl)pyrrolo[2,1-f][1,2,4]triazin-2-yl)-3-methylcyclobutane-1,3-diamine]",2.8
6,"COc1nc(N[C@H]2CC[C@](C)(O)CC2)nn2cc(F)c(-c3cnc4nccn4c3)c12 [Compound 996, (1r,4r)-4-((6-Fluoro-5-(imidazo[1,2-a]pyrimidin-6-yl)-4-methoxypyrrolo[2,1-f][1,2,4]triazin-2-yl)amino)-1-methylcyclohexan-1-ol]",2.9
7,"COc1nc(N[C@H]2CC[C@](C)(O)CC2)nn2ccc(-c3ccc4nc(C)n(CC(F)F)c4c3)c12 [Compound 112, trans-4-((5-(1-(2,2-Difluoroethyl)-2-methyl-1H-benzo[d]imidazol-6-yl)-4-methoxypyrrolo[2,1-f][1,2,4]triazin-2-yl)amino)-1-methylcyclohexan-1-ol]",2.6
8,"COc1nc(NC2CCOCC2)nn2ccc(-c3cnc4nccn4c3)c12 [Compound 271, 5-(Imidazo[1,2-a]pyrimidin-6-yl)-4-methoxy-N-(tetrahydro-2H-pyran-4-yl)pyrrolo[2,1-f][1,2,4]triazin-2-amine]",3.8
9,"COc1nc(N[C@H]2CC[C@](C)(O)CC2)nn2ccc(-c3cc4ccncc4[nH]3)c12 [Compound 284, trans-4-((4-Methoxy-5-(1H-pyrrolo[2,3-c]pyridin-2-yl)pyrrolo[2,1-f][1,2,4]triazin-2-yl)amino)-1-methylcyclohexan-1-ol]",235
10,"CN1CC[C@H](Nc2nc(OC3COC3)c3c(-c4ccc5ncccc5c4)ccn3n2)[C@H](F)C1 [Compound 1090, N-((3R,4S)-3-Fluoro-1-methylpiperidin-4-yl)-4-(oxetan-3-yloxy)-5-(quinolin-6-yl)pyrrolo[2,1-f][1,2,4]triazin-2-amine]",5.7
11,"COc1nc(NC23CCC(O)(CC2)C3)nn2ccc(-c3cnc4nccn4c3)c12 [Compound 978, 4-((5-(Imidazo[1,2-a]pyrimidin-6-yl)-4-methoxypyrrolo[2,1-f][1,2,4]triazin-2-yl)amino)bicyclo[2.2.1]heptan-1-ol]",2.4
12,"COc1nc(N[C@H]2CCN(C(C)=O)C[C@H]2F)nn2ccc(-c3cc(F)c4nnn(CC(F)F)c4c3)c12 [Compound 816, 1-((3R,4S)-4-((5-(1-(2,2-Difluoroethyl)-4-fluoro-1H-benzo[d][1,2,3]triazol-6-yl)-4-methoxypyrrolo[2,1-f][1,2,4]triazin-2-yl)amino)-3-fluoropiperidin-1-yl)ethan-1-one]",2.8
13,"COc1nc(N[C@H]2C[C@@](C)(N(C)C)C2)nn2ccc(-c3ccc4nnn(C)c4c3)c12 [Compound 204, cis-N^3-(4-methoxy-5-(1-methyl-1H-benzo[d][1,2,3]triazol-6-yl)pyrrolo[2,1-f][1,2,4]triazin-2-yl)-N^1,N^1,1-trimethylcyclobutane-1,3-diamine]",3.5

# Stronger by IC50, values ahead:
row,IC50 [nM],SMILES
1,1.8,"COc1nc(NC2CCC(F)(F)CC2)nn2ccc(-c3cnc4nccn4c3)c12 [Compound 254, N-(4,4-Difluorocyclohexyl)-5-(imidazo[1,2-a]pyrimidin-6-yl)-4-methoxypyrrolo[2,1-f][1,2,4]triazin-2-amine]"
2,< 0.2,"COc1nc(N[C@@H]2CN(C(C)=O)C[C@@H]2F)nn2ccc(-c3ccc4nnn(CCF)c4c3)c12 [Compound 660, 1-((3S,4R)-3-Fluoro-4-((5-(1-(2-fluoroethyl)-1H-benzo[d][1,2,3]triazol-6-yl)-4-methoxypyrrolo[2,1-f][1,2,4]triazin-2-yl)amino)pyrrolidin-1-yl)ethan-1-one]"
3,0.8,"COc1nc(N[C@@H]2CN(C(C)=O)C[C@@H]2F)nn2ccc(-c3ccc4nnn(CC(F)(F)F)c4c3)c12 [Compound 912, 1-((3S,4R)-3-Fluoro-4-((4-methoxy-5-(1-(2,2,2-trifluoroethyl)-1H-benzo[d][1,2,3]triazol-6-yl)pyrrolo[2,1-f][1,2,4]triazin-2-yl)amino)pyrrolidin-1-yl)ethan-1-one]"
4,1.7,"COc1nc(N[C@H]2CC[C@](C)(O)CC2)nn2ccc(-c3cc(F)c4nnn(CC(F)F)c4c3)c12 [Compound 811, (1r,4r)-4-((5-(1-(2,2-Difluoroethyl)-4-fluoro-1H-benzo[d][1,2,3]triazol-6-yl)-4-methoxypyrrolo[2,1-f][1,2,4]triazin-2-yl)amino)-1-methylcyclohexan-1-ol]"
5,1.5,"CCO[C@H]1C[C@@H](Nc2nc(OC)c3c(-c4cnc5nccn5c4)ccn3n2)C1 [Compound 931, N-(cis-3-Ethoxycyclobutyl)-5-(imidazo[1,2-a]pyrimidin-6-yl)-4-methoxypyrrolo[2,1-f][1,2,4]triazin-2-amine]"
6,2,"COc1nc(NCC(C)(C)C#N)nn2ccc(-c3cnc4nccn4c3)c12 [Compound 1146, 3-((5-(Imidazo[1,2-a]pyrimidin-6-yl)-4-methoxypyrrolo[2,1-f][1,2,4]triazin-2-yl)amino)-2,2-dimethylpropanenitrile]"
7,1.1,"CNC(=O)c1cnc2ccc(-c3ccn4nc(N[C@H]5CC[C@](C)(O)CC5)nc(OC)c34)cn12 [Compound 441, 6-(2-(((1r,4r)-4-Hydroxy-4-methylcyclohexyl)amino)-4-methoxypyrrolo[2,1-f][1,2,4]triazin-5-yl)-N-methylimidazo[1,2-a]pyridine-3-carboxamide]"
8,0.4,"COc1nc(N[C@H]2CCN(C3(C)COC3)C[C@H]2F)nn2ccc(-c3ccc4nnn(CC(F)F)c4c3)c12 [Compound 764, 5-(1-(2,2-difluoroethyl)-1H-benzo[d][1,2,3]triazol-6-yl)-N-((3R,4S)-3-fluoro-1-(3-methyloxetan-3-yl)piperidin-4-yl)-4-methoxypyrrolo[2,1-f][1,2,4]triazin-2-amine]"
9,1.4,"COc1nc(N[C@H]2C[C@]3(CCN3C(C)=O)C2)nn2ccc(-c3ccc4nccnc4c3)c12 [Compound 383, 1-((4s,6r)-6-((4-Methoxy-5-(quinoxalin-6-yl)pyrrolo[2,1-f][1,2,4]triazin-2-yl)amino)-1-azaspiro[3.3]heptan-1-yl)ethan-1-one]"
